Test results as given in ChEMBL document CHEMBL3880419, “Modulators of sperm hypermobility and uses thereof” (2013).
The source made the active and inactive calls. The calls are words filed in the database; no cut-off is given here.

Legend:
Mus musculus [1] = test: In vivo inhibition of fertility in C57BL/6 male mouse administered in diet after 7 to 9 days; format: functional, organism-based
[2] = target: T1, Cation channel sperm-associated protein 1 (Homo sapiens) (UniProt Q8NEC5); test: Inhibition of CatSper1 channel in human sperm assessed as sperm motility at 50 uM after 5 mins by computer-assisted sperm analysis (reference value: 68%); design: scale not given: the % may be the effect or the level left
T1 sequence (whole entry): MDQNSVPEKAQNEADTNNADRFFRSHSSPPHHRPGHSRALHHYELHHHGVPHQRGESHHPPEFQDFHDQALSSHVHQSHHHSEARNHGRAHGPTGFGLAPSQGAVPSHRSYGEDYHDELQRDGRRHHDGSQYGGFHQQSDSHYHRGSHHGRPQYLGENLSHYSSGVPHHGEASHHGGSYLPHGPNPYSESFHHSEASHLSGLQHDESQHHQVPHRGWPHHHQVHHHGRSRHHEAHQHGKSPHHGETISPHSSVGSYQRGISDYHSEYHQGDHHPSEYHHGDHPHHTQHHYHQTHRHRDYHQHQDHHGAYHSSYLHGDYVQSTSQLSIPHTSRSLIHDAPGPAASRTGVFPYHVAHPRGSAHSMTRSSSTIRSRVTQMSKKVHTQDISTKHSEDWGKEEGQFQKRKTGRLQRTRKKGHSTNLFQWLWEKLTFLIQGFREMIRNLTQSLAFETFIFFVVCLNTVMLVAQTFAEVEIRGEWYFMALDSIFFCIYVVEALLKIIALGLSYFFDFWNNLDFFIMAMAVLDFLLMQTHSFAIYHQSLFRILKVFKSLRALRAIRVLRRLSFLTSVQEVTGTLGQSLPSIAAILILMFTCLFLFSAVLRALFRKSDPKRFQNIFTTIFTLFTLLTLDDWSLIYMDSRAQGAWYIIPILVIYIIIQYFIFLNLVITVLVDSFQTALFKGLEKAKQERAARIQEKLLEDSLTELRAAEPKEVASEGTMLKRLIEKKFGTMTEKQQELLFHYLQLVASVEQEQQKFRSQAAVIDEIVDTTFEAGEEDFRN

Mus musculus [3] = test: In vivo inhibition of fertility in C57BL/6 female mouse administered in diet treated for 5 weeks followed by breeding of female mouse with nontreated age-matched male mouse for 4 days; format: functional, organism-based
[4] = Toxicity in C57BL/6 male mouse assessed as effect on animal behavior administered in diet measured after prolonged compound treatment; settings: in vivo, po
[5] = target: T2, Cation channel sperm-associated protein 1 (Mus musculus) (UniProt Q91ZR5); test: Inhibition of CatSper1 currents in mouse spermatozoa isolated from corpus epididymis at 20 uM by whole cell patch clamp assay
T2 sequence (whole entry): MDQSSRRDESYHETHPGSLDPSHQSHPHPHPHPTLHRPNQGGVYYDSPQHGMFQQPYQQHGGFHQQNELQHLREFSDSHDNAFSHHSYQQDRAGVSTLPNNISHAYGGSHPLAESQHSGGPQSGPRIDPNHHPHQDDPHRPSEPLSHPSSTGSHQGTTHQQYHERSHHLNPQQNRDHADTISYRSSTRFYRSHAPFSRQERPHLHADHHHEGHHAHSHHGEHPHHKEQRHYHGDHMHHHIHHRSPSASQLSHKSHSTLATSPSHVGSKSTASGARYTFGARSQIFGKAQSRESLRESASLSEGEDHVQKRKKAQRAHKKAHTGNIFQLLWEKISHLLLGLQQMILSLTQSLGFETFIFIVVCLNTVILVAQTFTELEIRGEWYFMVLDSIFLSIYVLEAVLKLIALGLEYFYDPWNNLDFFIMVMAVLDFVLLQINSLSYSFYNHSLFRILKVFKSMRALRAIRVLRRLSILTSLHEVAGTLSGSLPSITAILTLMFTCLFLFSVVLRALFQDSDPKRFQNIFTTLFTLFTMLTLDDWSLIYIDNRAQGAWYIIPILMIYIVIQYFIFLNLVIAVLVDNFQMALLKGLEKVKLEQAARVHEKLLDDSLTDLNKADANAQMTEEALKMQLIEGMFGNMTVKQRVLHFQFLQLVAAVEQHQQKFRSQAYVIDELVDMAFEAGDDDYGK

Mus musculus [6] = test: Reversible inhibition of fertility in C57BL/6 female mouse administered in diet for 2 months; format: functional; settings: TDE = time-dependent effect
[7] = target: T2, Cation channel sperm-associated protein 1 (Mus musculus); test: Inhibition of wild type CatSper1 channel in mouse corpus epididymal sperm cells assessed decrease in Ca2+ current by whole cell patch clamp assay
[8] = target: T2, Cation channel sperm-associated protein 1 (Mus musculus); test: Inhibition of CatSper1 channel […] in 129/SvJ x C57BL/6J mouse cauda epididymal sperm assessed as reduction in sperm hyperactivity after 5 mins by single sperm motility assay
[9] = Toxicity in C57BL/6 male mouse assessed as effect on serum biochemistry administered in diet measured after prolonged compound treatment; settings: in vivo, po
Mus musculus [10] = test: Reversible inhibition of fertility in C57BL/6 male mouse administered in diet for 2 months; format: functional; settings: TDE = time-dependent effect
[11] = Toxicity in C57BL/6 female mouse assessed as effect on serum biochemistry administered in diet measured after prolonged compound treatment; settings: in vivo, po
[12] = Toxicity in C57BL/6 male mouse assessed as effect on reproductive hormone levels administered in diet measured after prolonged compound treatment; settings: in vivo, po
[13] = target: T1, Cation channel sperm-associated protein 1 (Homo sapiens); test: Inhibition of CatSper1 channel in human sperm assessed as sperm hyperactivity at 50 uM after 5 mins by computer-assisted sperm analysis (reference value: 10.5%); design: scale not given: the % may be the effect or the level left
[14] = target: T1, Cation channel sperm-associated protein 1 (Homo sapiens); test: Inhibition of CatSper1 channel in human sperm assessed as sperm motility at 1 uM after 5 mins by computer-assisted sperm analysis (reference value: 68%); design: scale not given: the % may be the effect or the level left
[15] = Toxicity in C57BL/6 female mouse assessed as effect on reproductive hormone levels administered in diet measured after prolonged compound treatment; settings: in vivo, po
[16] = Toxicity in C57BL/6 female mouse assessed as effect on animal behavior administered in diet measured after prolonged compound treatment; settings: in vivo, po
[17] = target: T1, Cation channel sperm-associated protein 1 (Homo sapiens); test: Inhibition of CatSper1 channel in human sperm assessed as sperm hyperactivity at 1 uM after 5 mins by computer-assisted sperm analysis (reference value: 10.5%); design: scale not given: the % may be the effect or the level left
[18] = target: T1, Cation channel sperm-associated protein 1 (Homo sapiens); test: Inhibition of CatSper1 channel in human sperm assessed as decrease in sperm hyperactivity after 5 mins by computer-assisted sperm analysis

Row | Structure (SMILES) | Activity [2] [%] | inhibition [5] | inhibition [7] | inhibition [8] | Activity [13] [%] | Activity [14] [%] | Activity [17] [%] | inhibition [18] | inhibition (Mus musculus [1]) | inhibition (Mus musculus [3]) | Activity [4] | inhibition (Mus musculus [6]) | Activity [9] | inhibition (Mus musculus [10]) | Activity [11] | Activity [12] | Activity [15] | Activity [16]
1 | O=C(c1cccs1)c1no[n+]([O-])c1C(=O)c1cccs1 | 70 | Active | Active | Dose-dependent effect | 1.6 | 59 | 6.2 | – | Dose-dependent effect | Active | Non-Toxic | Tde | Non-Toxic | Tde | Non-Toxic | Non-Toxic | Non-Toxic | Non-Toxic
2 | O=C(c1ccccc1)c1no[n+]([O-])c1C(=O)c1ccccc1 | – | – | Active | Dose-dependent effect | – | – | – | – | Dose-dependent effect | Active | Non-Toxic | Tde | Non-Toxic | Tde | Non-Toxic | Non-Toxic | Non-Toxic | Non-Toxic
3 | O=C(c1ccc(Cl)c(Cl)c1)c1no[n+]([O-])c1C(=O)c1ccc(Cl)c(Cl)c1 | – | – | Active | Dose-dependent effect | – | – | – | Active | Dose-dependent effect | Active | Non-Toxic | Tde | Non-Toxic | Tde | Non-Toxic | Non-Toxic | Non-Toxic | Non-Toxic

Continued, in another order:

Row | Activity [2] [%] | inhibition [5] | inhibition [7] | inhibition [8] | Activity [13] [%] | Activity [14] [%] | Activity [17] [%] | inhibition [18] | Structure (SMILES) | inhibition (Mus musculus [1]) | inhibition (Mus musculus [3]) | Activity [4] | inhibition (Mus musculus [6]) | Activity [9] | inhibition (Mus musculus [10]) | Activity [11] | Activity [12] | Activity [15] | Activity [16]
4 | – | – | Active | Dose-dependent effect | – | – | – | Active | CC(C)(C)C(=O)c1no[n+]([O-])c1C(=O)C(C)(C)C | Dose-dependent effect | Active | Non-Toxic | Tde | Non-Toxic | Tde | Non-Toxic | Non-Toxic | Non-Toxic | Non-Toxic
5 | – | – | Active | Dose-dependent effect | – | – | – | Active | Cc1conc1C(=O)c1no[n+]([O-])c1C(=O)c1nocc1C | Dose-dependent effect | Active | Non-Toxic | Tde | Non-Toxic | Tde | Non-Toxic | Non-Toxic | Non-Toxic | Non-Toxic
